Toxic doses and inconclusive results are not listed. Rule as the data show it: active = T/C of 150% or more; inactive = T/C below 125%.
Test system: L1210 leukemia ip in BDF1 mice, survival T/C
Test: NCI In Vivo Anticancer Drug Screen. Data for tumor model L1210 Leukemia (intraperitoneal) in B6D2F1 (BDF1) mice
Settings: endpoint: mean survival time, higher = longer survival
Summary of the method: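 Ratio derived from survival: compound-dosed mice over vehicle-dosed mice, all bearing a transplantable tumor.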

[1] = dose: 100.0 mg/kg/injection, schedule: Q01DX009 (ip), vehicle: Klucel (hydroxypropylcellulose) (HPC)
[2] = dose: 100.0 mg/kg/injection, schedule: Q04DX003 (ip), vehicle: Klucel (hydroxypropylcellulose) (HPC)
[3] = dose: 200.0 mg/kg/injection, schedule: Q01DX009 (ip), vehicle: Klucel (hydroxypropylcellulose) (HPC)
[4] = dose: 200.0 mg/kg/injection, schedule: Q04DX003 (ip), vehicle: Klucel (hydroxypropylcellulose) (HPC)
[5] = dose: 400.0 mg/kg/injection, schedule: Q01DX009 (ip), vehicle: Klucel (hydroxypropylcellulose) (HPC)
[6] = dose: 400.0 mg/kg/injection, schedule: Q04DX003 (ip), vehicle: Klucel (hydroxypropylcellulose) (HPC)
[7] = dose: 100.0 mg/kg/injection, schedule: Q01DX001 (ip), vehicle: saline
[8] = dose: 100.0 mg/kg/injection, schedule: Q01DX009 (ip), vehicle: saline
[9] = dose: 200.0 mg/kg/injection, schedule: Q01DX001 (ip), vehicle: saline
[10] = dose: 200.0 mg/kg/injection, schedule: Q01DX009 (ip), vehicle: saline
[11] = dose: 400.0 mg/kg/injection, schedule: Q01DX001 (ip), vehicle: saline
[12] = dose: 100.0 mg/kg/injection, schedule: Q04DX003 (ip), vehicle: saline with Tween-80
[13] = dose: 200.0 mg/kg/injection, schedule: Q04DX003 (ip), vehicle: saline with Tween-80
[14] = dose: 400.0 mg/kg/injection, schedule: Q04DX003 (ip), vehicle: saline with Tween-80
[15] = dose: 100.0 mg/kg/injection, schedule: Q04DX002 (ip), vehicle: Klucel (hydroxypropylcellulose) (HPC)
[16] = dose: 200.0 mg/kg/injection, schedule: Q04DX002 (ip), vehicle: Klucel (hydroxypropylcellulose) (HPC)
[17] = dose: 100.0 mg/kg/injection, schedule: Q01DX001 (ip), vehicle: carboxymethylcellulose (CMC)
[18] = dose: 200.0 mg/kg/injection, schedule: Q01DX001 (ip), vehicle: carboxymethylcellulose (CMC)
[19] = dose: 400.0 mg/kg/injection, schedule: Q01DX001 (ip), vehicle: carboxymethylcellulose (CMC)
[20] = dose: 100.0 mg/kg/injection, schedule: Q01DX009 (ip), vehicle: saline with Tween-80
[21] = dose: 200.0 mg/kg/injection, schedule: Q01DX009 (ip), vehicle: saline with Tween-80

Measured: T/C

O=[N+]([O-])c1ccc(/C(=C/c2ccccc2)[n+]2ccccc2)cc1
inactive: dose: 10.0 mg/kg/injection, schedule: Q01DX001 (ip), vehicle: saline 106 % of control | dose: 20.0 mg/kg/injection, schedule: Q01DX001 (ip), vehicle: saline 100 % of control | dose: 40.0 mg/kg/injection, schedule: Q01DX001 (ip), vehicle: saline 100 % of control

CC(C)(C)CC(C)(C)c1ccc(OCCOc2ccc([N+](=O)[O-])cc2N)cc1
inactive: [1] 97 % of control | [2] 98 % of control | [3] 97 % of control | [4] 93 % of control | [5] 101 % of control | [6] 86 % of control

CCCOCNC(=O)c1cccnc1
inactive: [7] 103 % of control | [8] 97 % of control | [9] 95 % of control | [10] 94 % of control | [11] 105 % of control | dose: 400.0 mg/kg/injection, schedule: Q01DX009 (ip), vehicle: saline 103 % of control

Cc1ccc(C(=O)/C=C/N2CCN(c3ccccc3)CC2)c(C)c1
inactive: [12] 100 % of control | [13] 105 % of control | [14] 98 % of control

CCO/C=N/c1oc(-c2ccccc2)nc1C#N
inactive: [15] 91 % of control | [16] 96 % of control

O=c1[nH]cnc2c1ncn2Cc1ccccc1
inactive: dose: 100.0 mg/kg/injection, schedule: Q01DX001 (ip), vehicle: saline with Tween-80 104 % of control | dose: 200.0 mg/kg/injection, schedule: Q01DX001 (ip), vehicle: saline with Tween-80 102 % of control | dose: 400.0 mg/kg/injection, schedule: Q01DX001 (ip), vehicle: saline with Tween-80 96 % of control

CNC(=O)Nc1nc2ccccc2[nH]1
inactive: [7] 103 % of control | [12] 109 % of control | [9] 115 % of control | [13] 109 % of control | [11] 100 % of control

O=C1OC(=O)c2c3c(c4c(c21)CCC4)CCC3
inactive: dose: 50.0 mg/kg/injection, schedule: Q01DX009 (ip), vehicle: saline 107 % of control | [7] 100 % of control | [8] 93 % of control | dose: 100.0 mg/kg/injection, schedule: Q04DX003 (ip), vehicle: saline 101 % of control | [9] 91 % of control | [10] 94 % of control | dose: 200.0 mg/kg/injection, schedule: Q04DX003 (ip), vehicle: saline 96 % of control | [11] 97 % of control

O=C(Nc1ccsc1)c1ccccc1
inactive: [17] 110 % of control | dose: 177.6 mg/kg/injection, schedule: Q01DX001 (ip), vehicle: carboxymethylcellulose (CMC) 98 % of control | [18] 91 % of control | dose: 266.8 mg/kg/injection, schedule: Q01DX001 (ip), vehicle: carboxymethylcellulose (CMC) 100 % of control | [19] 90 % of control | dose: 600.0 mg/kg/injection, schedule: Q01DX001 (ip), vehicle: carboxymethylcellulose (CMC) 102 % of control

CCC(CC)c1ccc2ccccc2c1
inactive: [7] 100 % of control | [9] 98 % of control | [11] 101 % of control

O=C(O)c1cc(-c2cccc(C(F)(F)F)c2)nc2c(C(F)(F)F)cccc12
inactive: dose: 50.0 mg/kg/injection, schedule: Q01DX009 (ip), vehicle: saline with Tween-80 96 % of control | [20] 96 % of control | [12] 101 % of control | [13] 105 % of control

CN(C)C(=S)SCC(=O)[O][Sn]([c]1ccccc1)([c]1ccccc1)[c]1ccccc1
inactive: dose: 6.25 mg/kg/injection, schedule: Q04DX002 (ip), vehicle: saline with Tween-80 96 % of control | dose: 12.5 mg/kg/injection, schedule: Q04DX002 (ip), vehicle: saline with Tween-80 93 % of control | dose: 25.0 mg/kg/injection, schedule: Q04DX002 (ip), vehicle: saline with Tween-80 104 % of control

Cc1ccc(Cl)cc1N=Cc1cccc([N+](=O)[O-])c1
inactive: dose: 75.0 mg/kg/injection, schedule: Q04DX003 (ip), vehicle: Klucel (hydroxypropylcellulose) (HPC) 96 % of control | dose: 100.0 mg/kg/injection, schedule: Q01DX001 (ip), vehicle: Klucel (hydroxypropylcellulose) (HPC) 100 % of control | dose: 150.0 mg/kg/injection, schedule: Q04DX003 (ip), vehicle: Klucel (hydroxypropylcellulose) (HPC) 93 % of control | dose: 200.0 mg/kg/injection, schedule: Q01DX001 (ip), vehicle: Klucel (hydroxypropylcellulose) (HPC) 97 % of control | dose: 300.0 mg/kg/injection, schedule: Q04DX003 (ip), vehicle: Klucel (hydroxypropylcellulose) (HPC) 93 % of control | dose: 400.0 mg/kg/injection, schedule: Q01DX001 (ip), vehicle: Klucel (hydroxypropylcellulose) (HPC) 101 % of control

Cc1ccc(NC(=O)c2ccc(C)c(N)c2)c(C)c1
inactive: dose: 100.0 mg/kg/injection, schedule: Q01DX009 (ip), vehicle: gum acacia 100 % of control | dose: 100.0 mg/kg/injection, schedule: Q04DX003 (ip), vehicle: gum acacia 98 % of control | dose: 200.0 mg/kg/injection, schedule: Q01DX009 (ip), vehicle: gum acacia 87 % of control | dose: 200.0 mg/kg/injection, schedule: Q04DX003 (ip), vehicle: gum acacia 102 % of control | dose: 400.0 mg/kg/injection, schedule: Q01DX009 (ip), vehicle: gum acacia 87 % of control | dose: 400.0 mg/kg/injection, schedule: Q04DX003 (ip), vehicle: gum acacia 98 % of control

O=c1cc(-c2ccccc2)c2ccc(O)cc2o1
inactive: [12] 95 % of control | [13] 101 % of control | [14] 93 % of control

O=c1cc(O)ccn1CCc1cccs1
inactive: [20] 94 % of control | [12] 91 % of control | [21] 96 % of control | [13] 98 % of control | [14] 90 % of control

C1CCC(=NN=C2CCCCC2)CC1
inactive: dose: 100.0 mg/kg/injection, schedule: Q01DX009 (sc), vehicle: olive oil, sesame oil, peanut oil 103 % of control | dose: 100.0 mg/kg/injection, schedule: Q04DX003 (sc), vehicle: olive oil, sesame oil, peanut oil 100 % of control | dose: 200.0 mg/kg/injection, schedule: Q01DX009 (sc), vehicle: olive oil, sesame oil, peanut oil 100 % of control | dose: 200.0 mg/kg/injection, schedule: Q04DX003 (sc), vehicle: olive oil, sesame oil, peanut oil 106 % of control | dose: 400.0 mg/kg/injection, schedule: Q01DX009 (sc), vehicle: olive oil, sesame oil, peanut oil 101 % of control | dose: 400.0 mg/kg/injection, schedule: Q04DX003 (sc), vehicle: olive oil, sesame oil, peanut oil 105 % of control

O=c1oc2ccc3ccccc3c2cc1-c1nc2ccccc2[nH]1
inactive: [15] 95 % of control | [16] 91 % of control | dose: 400.0 mg/kg/injection, schedule: Q04DX002 (ip), vehicle: Klucel (hydroxypropylcellulose) (HPC) 110 % of control

C=CCSc1ccccc1C
inactive: [7] 95 % of control | [9] 95 % of control

C=C(C)CNc1ccccc1
inactive: [20] 95 % of control | [12] 97 % of control | [21] 93 % of control | [13] 97 % of control | [14] 103 % of control

Cc1cc(/C=N/N2CCN(/N=C/c3cc(C)n(-c4ccccc4)c3C)CC2)c(C)n1-c1ccccc1
inactive: [17] 95 % of control | [18] 88 % of control | [19] 90 % of control

O=C(O)c1ccc2c(c1)OCO2
inactive: [1] 97 % of control | [3] 92 % of control | [5] 99 % of control

Cc1ccc(N=Cc2ccccc2)cc1
inactive: [1] 104 % of control | [2] 95 % of control | [3] 107 % of control | [4] 101 % of control | [5] 104 % of control | [6] 101 % of control

c1ccc(-c2cnsc2)cc1
inactive: [18] 95 % of control | [19] 100 % of control

CCCC(C=NCC(CCC)(CCN(C)C)c1cccc2ccccc12)(CCN(C)C)c1cccc2ccccc12 (stereo not given)
inactive: dose: 6.25 mg/kg/injection, schedule: Q04DX002 (ip), vehicle: Klucel (hydroxypropylcellulose) (HPC) 88 % of control | dose: 12.5 mg/kg/injection, schedule: Q04DX002 (ip), vehicle: Klucel (hydroxypropylcellulose) (HPC) 101 % of control | dose: 25.0 mg/kg/injection, schedule: Q04DX002 (ip), vehicle: Klucel (hydroxypropylcellulose) (HPC) 104 % of control
